What is called IC50 is the concentration at which inhibition is half-maximal.

Consider seven compounds from patent US8404665B2, “In vivo use of glutathione S-transferase activated nitric oxide donors” (University of Utah Research Foundation, priority 2002, dated 2013).

This test deals with HL-60 cells. The experiment in a line: HL-60 leukemia cell growth (Coulter counter or MTT assay). It counts as cell-based, human. The conditions noted are these: for IC50: Homo sapiens; for effect on cell growth: HL-60, NAC 0.3-0.5 mM or BSO 0.2-0.3 mM alone; for inhibition of cell growth: HL-60 screen. As for the experimental part:
Cell Lines and Culture Conditions. HL-60, DLD1, and U937 cells were obtained from ATCC (Rockville, Md.). Meth A cells were from Dr. Wolfram Samlowski (University of Utah, Salt Lake City, Utah). The PPC-1 cell line was provided by Dr. Graeme Bolger (University of Alabama, Birmingham, Ala.). For the cell growth and apoptosis experiments, cells were cultured at a density of 150,000 cells/ml in RPMI-1640 with 10% fetal bovine serum at 37° C. in a 5% CO2 humidified atmosphere. Agents were added at the indicated concentrations 24 h after culture initiation. At the indicated time intervals, cells were harvested and washed twice in phosphate buffered saline (PBS) prior to processing for analysis of growth, differentiation, and apoptosis.
Cell Growth, Differentiation and Apoptosis Assays. The number of viable cells was determined using the MTT assay according to the manufacturer's protocol (Promega, Madison, Wis.) or using a Coulter counter. Briefly, a MTT assay is an analytical technique that uses the dye dimethylthiazolyl-diphenyltetrazolium (MTT) which turns from yellow to brownish-purple as it is reduced in the mitochondria of living cells. The assay is useful in calorimetric quantitation of cell viability and proliferation. In contrast, cell differentiation was evaluated using Wright and Non-Specific Esterase (NSE) staining of cells collected on microscope slides by cytospin as previously described (Magrinat, G. et al. (1992) Blood 80: 1880-1884). Apoptosis was assayed by flow cytometry and by determining DNA fragmentation using agarose gel electrophoresis as previously described (Shami, P. J. et al. (1998) Leukemia 12: 1461-1466). For the flow cytometry assay, we used the propidium iodide staining method of Nicoletti et al. (Nicoletti, I. et al. (1991) J. Immunol. Methods 139: 271-279).
For the initial screen, HL60 cells were cultured in triplicate in RPMI1640/10% FBS under standard conditions. Compounds were added to the cultures at the following concentrations: 0, 0.1, 1, 10, and 100 micromolar (uM). Three days after addition of the compounds cell growth was determined either using a Coulter counter or using the MTT assay.
The antiproliferative effects in the human AML (Acute Myeloid Leukemia) cell lines, HL-60 (myeloid leukemia) and U937 (monoblastic leukemia) cells were treated with JS-K for a period of 3 days, upon which cell growth was evaluated using a Coulter counter (CITY, STATE). JS-K was added to HL-60 cells at 0, 0.25, 0.5, 0.75, and 1.0 μM concentrations. […] Similar results were obtained in U937 cells under similar conditions.
(Tetrazolium assays rely on reduction of a dye to a coloured formazan, in cell work by metabolically active cells.)

Setting [1] is: HL-60 assay system, comparison with chemotherapeutic agents, read-out: IC50, growth inhibition.

Molecules are shown by their SMILES. Read-outs that look alike come from different tables or passages of the source.

As to `O=[N+]([O-])c1ccc(Cl)c([N+](=O)[O-])c1` [1-Chloro-2,4-dinitrobenzene, reference compound], the IC50 (HL-60, read-out: IC50, growth inhibition) was ~6700 nM.
For the compound `CCCCS(=N)(=O)CCC(N)C(=O)O` (stereo not shown) [BSO, buthionine sulfoximine, reference compound], the “effect on cell growth” value is listed as “did not appear to significantly affect cell growth”.
Turning to `O=[N+]([O-])c1ccc(ON=[N+]([O-])N2CCN(c3ccccc3)CC2)c([N+](=O)[O-])c1` [JXC-2-40, O^2-(2,4-dinitrophenyl) 1-[4-phenylpiperazin-1-yl]diazen-1-ium-1,2-diolate], the “inhibition of cell growth” value is “good inhibitors of cell growth”.
For `O=[N+]([O-])c1ccc(ON=[N+]([O-])N2CCN(c3ncccn3)CC2)c([N+](=O)[O-])c1` [JXC-2-56, O^2-(2,4-dinitrophenyl) 1-[4-(pyrimidin-2-yl)piperazin-1-yl]diazen-1-ium-1,2-diolate], the “inhibition of cell growth” value is listed as “good inhibitors of cell growth”.
On to `CC(=O)N[C@@H](CS)C(=O)O` [NAC, N-acetyl-L-cysteine, reference compound], for which the “effect on cell growth” value is on record as “did not appear to significantly affect cell growth”.
Turning to `COc1cccc2c1C(=O)c1c(O)c3c(c(O)c1C2=O)C[C@@](O)(C(C)=O)C[C@@H]3O[C@H]1C[C@H](N)[C@H](O)[C@H](C)O1` [daunorubicin, reference compound], the IC50 under setting [1] is 10 nM.
On the same count and under the same terms, to `COc1cc([C@@H]2c3cc4c(cc3[C@@H](O[C@@H]3O[C@@H]5CO[C@@H](C)O[C@H]5[C@H](O)[C@H]3O)[C@H]3COC(=O)[C@H]23)OCO4)cc(OC)c1O` [etoposide, reference compound] belongs 300 nM.
